According to patent publication US20140371244A1, “METHOD FOR TREATING PROSTATE CANCER BY USE OF PHARMACEUTICAL COMPOSITION CONTAINING A3 ADENOSINE RECEPTOR AGONIST” (priority 2009, published 2014):

What was measured:
[1] = test system: LNCaP; assay: Morphological change of LNCaP cells; assay type: cell-based, human; settings: 40, 20 and 10 μM, 48 hours
Method: (§1) Each of LNCaP and PC-3 prostate cancer cell lines was treated with 40, 20 and 10 μM of thio-Cl-IB-MECA and cultured for 48 hours, and then the morphological change of the cells was observed.
(§2) Specifically, each type of the prostate cancer cells was diluted with 10% FBS (Fetal Bovine Serum)-containing medium to a density of 1.0×10^6 cells per 100 mm culture dish and cultured under the conditions of 37° C. and 5% CO2, followed by washing twice with PBS (Phosphate Buffered Saline). Thio-Cl-IB-MECA was diluted in 10% FBS-containing medium at required concentration, and then 10 ml of the culture medium prepared in the 100 mm culture dish was added thereto and incubated for a given time. The morphology of the cells was observed as a function of treatment time and concentration (FIGS. 11a and 11b).

[2] = test system: PC-3; assay: Morphological change of PC-3 cells; assay type: cell-based, human; settings: 40, 20 and 10 μM, 48 hours
Method: as §1, §2

[3] = test system: IL-1β; assay: IL-1β gene and protein expression in LPS-stimulated RAW 264.7 cells; assay type: cell-based, mouse; settings: 5, 10, 20 μM, LPS 1 μg/ml
Method: IL-1β is one of major factors involved in inflammation and functions to induce the expression of several genes related to inflammation and tissue injury. Thus, the effects of the inventive composition on the expressions of mRNA gene and protein of IL-1β were tested. Specifically, RAW 264.7 cells were pretreated with each of 20, 10 and 5 μM of the inventive composition (thio-Cl-IB-MECA) and treated with LPS (1 μg/ml) to induce inflammatory reactions, followed by culture for 4 hours. The RNA fraction was collected and cultured for 8 hours, and then the protein was collected and subjected to RT-PCR and Western blot.

[4] = test system: Human colorectal cancer HCT116 cells; assay: Morphological change of HCT116 cells; assay type: cell-based; settings: 40 μM, 48 hours
Method: Human colorectal cancer HCT116 cells were treated with 40 μM of thio-Cl-IB-MECA and cultured for 48 hours, and then the morphological change of the cells was observed.
Specifically, HCT116 cells were diluted with 10% FBS (Fetal Bovine Serum)-containing medium to a density of 1.0×10^6 cells per 100 mm culture dish and cultured under the conditions of 37° C. and 5% CO2, followed by washing twice with PBS (Phosphate Buffered Saline). Thio-Cl-IB-MECA was diluted to a concentration of 40 μM, and then 10 ml of the culture medium prepared in the 100 mm culture dish was added thereto and incubated for a given time. The morphology of the cells was observed as a function of treatment time and concentration (FIG. 19).

[5] = test system: iNOS; assay: Expression of iNOS protein and gene (Western blot, RT-PCR) in LPS-stimulated RAW 264.7 cells; assay type: cell-based, mouse
Method: The effects of the inventive composition on the expression of iNOS protein and mRNA were examined by Western blot analysis and RT-PCR. Specifically, RAW 264.7 cells were diluted with 10% FBS-containing medium to a density of 1×10^6 cells per 100 mm culture dish and cultured under the conditions of 37° C. and 5% CO2 for 24 hours, followed by washing twice with PBS. The cells were pretreated with each of 20 μM (the highest concentration showing no cytotoxicity), 10 μM and 5 μM of thio-Cl-IB-MECA in 10% FBS-containing medium, and inflammatory reactions in the cells were induced by LPS (1 μg/ml), followed by culture for 18 hours. […] The cells were thawed at 37° C. immediately before use and used in protein quantification and electrophoresis.
Protein quantification was performed using the BCA method, and […] of the protein was electrophoresed on 8-12% SDS-polyacrylamide gel at 150 V for 110 minutes. […] The membrane was washed 2-3 times with PBST for 5 minutes each time, after which HRP-conjugated secondary antibody was diluted at a ratio of 1:1,500-1:2,000 and incubated with the membrane at room temperature for 2-3 hours. the membrane was washed three times with PBST for 5 minutes each time and treated with a Western blot substrate (WESTSAVE Up™), and the produced luminescence was examined using LAS-3000. […]

[6] = test system: ICR white mice; assay: Animal toxicity test, single oral dose; assay type: in vivo; settings: oral 1500 mg/kg, n=10
Method: In order to examine the toxicities of thio-Cl-IB-MECA and thio-IB-MECA, each of the compounds was administered orally to ICR white mice (n=10, 25 g) at a dose of 1500 mg/kg weight, and the behavioral change and state of the mice were observed.

CNC(=O)[C@H]1S[C@@H](n2cnc3c(NCc4cccc(I)c4)nc(Cl)nc32)[C@H](O)[C@@H]1O [thio-Cl-IB-MECA, 2-chloro-N^6-(3-iodobenzyl)-4′-thioadenosine-5′-N-methyluronamide]
number of the cells, LNCaP [1]: decreased in a concentration-dependent manner | number of the cells, PC-3 [2]: decreased in a concentration-dependent manner | expression of IL-1β gene ([3]; RT-PCR): concentration-dependently inhibited | expression of IL-1β protein ([3]; Western blot): concentration-dependently inhibited | number of the cells, HCT116 [4]: decreased | expression of iNOS gene ([5]; RT-PCR, 5, 10 or 20 μM, vs LPS control): inhibited the expression of iNOS gene in a concentration-dependent manner | expression of iNOS protein ([5]; Western blot, 5, 10, 20 μM, LPS 1 μg/ml, 18 hours): inhibited the expression of iNOS protein in a concentration-dependent manner | survival and side effects up to 7 days after administration [6]: survived healthfully without particular side effects
